# In PubChem BioAssay (NCI):
#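 Five concentrations, 48 hours, 96-well plates. TGI: total growth inhibition.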
# Assays:
# Assay in all cases: NCI anticancer screen, dose series, 48 h
# MALME-3M melanoma = tested on: MALME-3M melanoma
# HOP-62 NSCLC = tested on: HOP-62 NSCLC
# CAKI-1 renal = tested on: CAKI-1 renal
# SNB-19 CNS = tested on: SNB-19 CNS
# OVCAR-8 ovarian = tested on: OVCAR-8 ovarian
# COLO 205 colon = tested on: COLO 205 colon
# NCI-H226 lung = tested on: NCI-H226 lung
# HT29 colon = tested on: HT29 colon
# TK-10 renal = tested on: TK-10 renal
# SF-539 CNS = tested on: SF-539 CNS
# SNB-75 CNS = tested on: SNB-75 CNS
# NCI-H23 lung = tested on: NCI-H23 lung
# SK-OV-3 ovarian = tested on: SK-OV-3 ovarian
# OVCAR-5 ovarian = tested on: OVCAR-5 ovarian
# UACC-257 melanoma = tested on: UACC-257 melanoma
# UACC-62 melanoma = tested on: UACC-62 melanoma
# PC-3 prostate = tested on: PC-3 prostate
# SK-MEL-2 melanoma = tested on: SK-MEL-2 melanoma
# DU-145 prostate = tested on: DU-145 prostate
structure (smiles),measurement,setting,value
C(=NCCCN1CCN(CCCN=Cc2cccc3ccccc23)CC1)c1cccc2ccccc12,TGI,MALME-3M melanoma,> 100 µM
same,TGI,HOP-62 NSCLC,> 100 µM
same,TGI,CAKI-1 renal,> 100 µM
same,TGI,SNB-19 CNS,> 100 µM
same,TGI,OVCAR-8 ovarian,> 100 µM
same,TGI,COLO 205 colon,> 100 µM
same,TGI,NCI-H226 lung,> 100 µM
same,TGI,HT29 colon,> 100 µM
same,TGI,TK-10 renal,> 100 µM
same,TGI,SF-539 CNS,> 100 µM
same,TGI,SNB-75 CNS,> 100 µM
same,TGI,NCI-H23 lung,> 100 µM
same,TGI,SK-OV-3 ovarian,> 100 µM
same,TGI,OVCAR-5 ovarian,> 100 µM
same,TGI,UACC-257 melanoma,> 100 µM
same,TGI,UACC-62 melanoma,> 100 µM
same,TGI,PC-3 prostate,> 100 µM
same,TGI,SK-MEL-2 melanoma,> 100 µM
Cc1c(NC(=O)c2cc([N+](=O)[O-])cc([N+](=O)[O-])c2)c(=O)n(-c2ccccc2)n1C,TGI,MALME-3M melanoma,> 100 µM
same,TGI,HOP-62 NSCLC,> 100 µM
same,TGI,CAKI-1 renal,> 100 µM
same,TGI,SNB-19 CNS,> 100 µM
same,TGI,OVCAR-8 ovarian,> 100 µM
same,TGI,DU-145 prostate,> 100 µM
same,TGI,COLO 205 colon,52.2 µM
same,TGI,NCI-H226 lung,> 100 µM
same,TGI,HT29 colon,> 100 µM
same,TGI,TK-10 renal,> 100 µM
same,TGI,SF-539 CNS,> 100 µM
same,TGI,NCI-H23 lung,> 100 µM
same,TGI,SK-OV-3 ovarian,> 100 µM
same,TGI,UACC-257 melanoma,> 100 µM
same,TGI,UACC-62 melanoma,> 100 µM
same,TGI,PC-3 prostate,> 100 µM
same,TGI,SK-MEL-2 melanoma,> 100 µM
c1ccc2sc(C3(N4CCC5(CC4)OCCO5)CCCCC3)cc2c1,TGI,MALME-3M melanoma,> 100 µM
same,TGI,HOP-62 NSCLC,> 100 µM
same,TGI,CAKI-1 renal,> 100 µM
same,TGI,SNB-19 CNS,> 100 µM
same,TGI,OVCAR-8 ovarian,> 100 µM
same,TGI,DU-145 prostate,> 100 µM
same,TGI,COLO 205 colon,> 100 µM
same,TGI,NCI-H226 lung,> 100 µM
same,TGI,HT29 colon,86.4 µM
same,TGI,TK-10 renal,> 100 µM
same,TGI,SF-539 CNS,> 100 µM
same,TGI,SNB-75 CNS,> 100 µM
same,TGI,NCI-H23 lung,> 100 µM
same,TGI,SK-OV-3 ovarian,> 100 µM
same,TGI,OVCAR-5 ovarian,> 100 µM
same,TGI,UACC-257 melanoma,> 100 µM
same,TGI,UACC-62 melanoma,> 100 µM
CC(C)[Si](OC1=C(C(=O)N(C)c2ccccc2Cl)CCCCC1)(C(C)C)C(C)C,TGI,MALME-3M melanoma,> 100 µM
same,TGI,HOP-62 NSCLC,> 100 µM
same,TGI,CAKI-1 renal,> 100 µM
same,TGI,SNB-19 CNS,> 100 µM
same,TGI,OVCAR-8 ovarian,> 100 µM
same,TGI,DU-145 prostate,> 100 µM
same,TGI,COLO 205 colon,> 100 µM
same,TGI,NCI-H226 lung,> 100 µM
same,TGI,HT29 colon,> 100 µM
same,TGI,TK-10 renal,> 100 µM
same,TGI,SF-539 CNS,> 100 µM
same,TGI,SNB-75 CNS,> 100 µM
same,TGI,NCI-H23 lung,> 100 µM
same,TGI,SK-OV-3 ovarian,> 100 µM
same,TGI,OVCAR-5 ovarian,> 100 µM
same,TGI,UACC-257 melanoma,> 100 µM
CNC(=O)C1CCCN1C(=O)C(Cc1cnc[nH]1)NC(=O)C1CCC(=O)N1 (configuration not stated),TGI,MALME-3M melanoma,> 100 µM
same,TGI,HOP-62 NSCLC,> 100 µM
same,TGI,CAKI-1 renal,> 100 µM
same,TGI,SNB-19 CNS,> 100 µM
same,TGI,OVCAR-8 ovarian,> 100 µM
same,TGI,DU-145 prostate,> 100 µM
same,TGI,COLO 205 colon,> 100 µM
same,TGI,NCI-H226 lung,> 100 µM
same,TGI,HT29 colon,> 100 µM
same,TGI,TK-10 renal,> 100 µM
same,TGI,SNB-75 CNS,> 100 µM
same,TGI,NCI-H23 lung,> 100 µM
same,TGI,SK-OV-3 ovarian,> 100 µM
same,TGI,OVCAR-5 ovarian,> 100 µM
same,TGI,UACC-62 melanoma,> 100 µM
same,TGI,PC-3 prostate,> 100 µM
Cn1c(=O)n2c(-c3ccccc3)c(-c3ccccc3)n2c1=O,TGI,MALME-3M melanoma,> 100 µM
same,TGI,HOP-62 NSCLC,> 100 µM
same,TGI,CAKI-1 renal,> 100 µM
same,TGI,SNB-19 CNS,> 100 µM
same,TGI,OVCAR-8 ovarian,> 100 µM
same,TGI,COLO 205 colon,> 100 µM
same,TGI,NCI-H226 lung,> 100 µM
same,TGI,HT29 colon,> 100 µM
same,TGI,TK-10 renal,> 100 µM
same,TGI,SF-539 CNS,> 100 µM
same,TGI,SNB-75 CNS,> 100 µM
same,TGI,NCI-H23 lung,> 100 µM
same,TGI,SK-OV-3 ovarian,> 100 µM
same,TGI,OVCAR-5 ovarian,> 100 µM
same,TGI,UACC-257 melanoma,> 100 µM
same,TGI,UACC-62 melanoma,> 100 µM
same,TGI,PC-3 prostate,> 100 µM
same,TGI,SK-MEL-2 melanoma,> 100 µM
CS/C(=N\S(=O)(=O)c1cc(C)c(Cl)cc1Cl)NNc1cnc2ccccc2n1,TGI,MALME-3M melanoma,> 100 µM
same,TGI,HOP-62 NSCLC,> 100 µM
same,TGI,CAKI-1 renal,> 100 µM
same,TGI,SNB-19 CNS,> 100 µM
same,TGI,OVCAR-8 ovarian,> 100 µM
same,TGI,DU-145 prostate,> 100 µM
same,TGI,COLO 205 colon,> 100 µM
same,TGI,NCI-H226 lung,> 100 µM
same,TGI,HT29 colon,> 100 µM
same,TGI,TK-10 renal,> 100 µM
same,TGI,SF-539 CNS,> 100 µM
same,TGI,SNB-75 CNS,> 100 µM
same,TGI,NCI-H23 lung,> 100 µM
same,TGI,SK-OV-3 ovarian,> 100 µM
same,TGI,OVCAR-5 ovarian,> 100 µM
same,TGI,UACC-257 melanoma,> 100 µM
same,TGI,UACC-62 melanoma,> 100 µM
same,TGI,PC-3 prostate,> 100 µM
O=P(c1ccccc1)(c1ccccc1)c1ccc2c(c1)OCCOCCOCCOCCO2,TGI,MALME-3M melanoma,> 100 µM
same,TGI,HOP-62 NSCLC,> 100 µM
same,TGI,CAKI-1 renal,> 100 µM
same,TGI,SNB-19 CNS,> 100 µM
same,TGI,OVCAR-8 ovarian,> 100 µM
same,TGI,DU-145 prostate,> 100 µM
same,TGI,COLO 205 colon,> 100 µM
same,TGI,NCI-H226 lung,> 100 µM
same,TGI,TK-10 renal,> 100 µM
same,TGI,SF-539 CNS,> 100 µM
same,TGI,SNB-75 CNS,> 100 µM
same,TGI,NCI-H23 lung,> 100 µM
same,TGI,SK-OV-3 ovarian,> 100 µM
same,TGI,UACC-62 melanoma,> 100 µM
same,TGI,PC-3 prostate,> 100 µM
N#Cc1c(-c2cccc(Cl)c2)cc(-c2ccc(Cl)cc2)nc1N,TGI,MALME-3M melanoma,58.4 µM
same,TGI,HOP-62 NSCLC,36.3 µM
same,TGI,CAKI-1 renal,86 µM
same,TGI,SNB-19 CNS,25.5 µM
same,TGI,OVCAR-8 ovarian,70.7 µM
same,TGI,DU-145 prostate,> 100 µM
same,TGI,COLO 205 colon,28.6 µM
same,TGI,NCI-H226 lung,34.8 µM
same,TGI,HT29 colon,44 µM
same,TGI,TK-10 renal,52.2 µM
same,TGI,SF-539 CNS,34.3 µM
same,TGI,NCI-H23 lung,38.2 µM
same,TGI,SK-OV-3 ovarian,46.7 µM
same,TGI,OVCAR-5 ovarian,42.9 µM
same,TGI,UACC-257 melanoma,36.1 µM
same,TGI,UACC-62 melanoma,32.7 µM
same,TGI,PC-3 prostate,49.2 µM
same,TGI,SK-MEL-2 melanoma,36.7 µM
CCOC(=O)N/N=C(\Cc1ccc([N+](=O)[O-])cc1)OCC,TGI,HOP-62 NSCLC,> 100 µM
same,TGI,SNB-19 CNS,> 100 µM
same,TGI,OVCAR-8 ovarian,> 100 µM
same,TGI,DU-145 prostate,> 100 µM
same,TGI,COLO 205 colon,> 100 µM
same,TGI,HT29 colon,> 100 µM
same,TGI,TK-10 renal,> 100 µM
same,TGI,SF-539 CNS,> 100 µM
same,TGI,SNB-75 CNS,> 100 µM
same,TGI,NCI-H23 lung,> 100 µM
same,TGI,SK-OV-3 ovarian,> 100 µM
same,TGI,OVCAR-5 ovarian,> 100 µM
same,TGI,UACC-257 melanoma,> 100 µM
same,TGI,UACC-62 melanoma,> 100 µM
same,TGI,PC-3 prostate,> 100 µM
same,TGI,SK-MEL-2 melanoma,> 100 µM
CCC1c2[nH]c3ccccc3c2C[C@H]2C(=O)N3CCC[C@H]3C(=O)N12 (some centres not stated),TGI,MALME-3M melanoma,> 100 µM
same,TGI,HOP-62 NSCLC,> 100 µM
same,TGI,CAKI-1 renal,> 100 µM
same,TGI,SNB-19 CNS,> 100 µM
same,TGI,OVCAR-8 ovarian,> 100 µM
same,TGI,DU-145 prostate,> 100 µM
same,TGI,COLO 205 colon,> 100 µM
same,TGI,NCI-H226 lung,> 100 µM
same,TGI,HT29 colon,> 100 µM
same,TGI,TK-10 renal,> 100 µM
same,TGI,NCI-H23 lung,> 100 µM
same,TGI,SK-OV-3 ovarian,> 100 µM
same,TGI,OVCAR-5 ovarian,> 100 µM
same,TGI,UACC-257 melanoma,> 100 µM
same,TGI,UACC-62 melanoma,> 100 µM
same,TGI,PC-3 prostate,> 100 µM
same,TGI,SK-MEL-2 melanoma,> 100 µM
C=C1CC2CC(=O)C(O)C(C1)C2 (configuration not stated),TGI,HOP-62 NSCLC,> 100 µM
same,TGI,CAKI-1 renal,> 100 µM
same,TGI,OVCAR-8 ovarian,> 100 µM
same,TGI,DU-145 prostate,> 100 µM
same,TGI,COLO 205 colon,> 100 µM
same,TGI,NCI-H226 lung,> 100 µM
same,TGI,HT29 colon,> 100 µM
same,TGI,TK-10 renal,> 100 µM
same,TGI,SF-539 CNS,> 100 µM
same,TGI,SNB-75 CNS,> 100 µM
same,TGI,NCI-H23 lung,> 100 µM
same,TGI,SK-OV-3 ovarian,> 100 µM
same,TGI,OVCAR-5 ovarian,> 100 µM
same,TGI,UACC-257 melanoma,> 100 µM
same,TGI,UACC-62 melanoma,> 100 µM
O=C1/C(=C/c2ccc(Cl)cc2)N=C(c2ccccc2)N1c1nc2c(Cl)cc(Cl)cc2s1,TGI,HOP-62 NSCLC,> 100 µM
same,TGI,CAKI-1 renal,> 100 µM
same,TGI,SNB-19 CNS,> 100 µM
same,TGI,OVCAR-8 ovarian,> 100 µM
same,TGI,DU-145 prostate,> 100 µM
same,TGI,COLO 205 colon,> 100 µM
same,TGI,HT29 colon,55.7 µM
same,TGI,TK-10 renal,> 100 µM
same,TGI,SF-539 CNS,46.1 µM
same,TGI,SNB-75 CNS,64.9 µM
same,TGI,SK-OV-3 ovarian,> 100 µM
same,TGI,OVCAR-5 ovarian,> 100 µM
same,TGI,UACC-257 melanoma,> 100 µM
same,TGI,UACC-62 melanoma,> 100 µM
same,TGI,PC-3 prostate,45.9 µM
same,TGI,SK-MEL-2 melanoma,55.5 µM
